What was measured:
[1] = test system: M. grisea CM; test: microbe, parasite or virus in culture; format: cell-based, Magnaporthe grisea; conditions: for inhibition of growth at 5 µg/mL / inhibition of growth at 10 µg/mL / inhibition of growth at 25 µg/mL / inhibition of growth at 50 µg/mL: Pyricularia grisea, 24 h, read-out: Aktivität gegenüber M. grisea CM
[2] = test system: Mucor miehei; test: Growth test in microtiter plates, HA medium, 24 h, visual evaluation; format: cell-based; set-up: key to Aktivität gegenüber M. miehei: +: kein Wachstum im Vergleich zur Wachstumskontrolle; -: Wachstum wie Wachstumskontrolle
[3] = test system: Penicillium notatum; test: as above; format: cell-based; set-up: key: +: kein Wachstum im Vergleich zur Wachstumskontrolle; -: Wachstum wie Wachstumskontrolle
[4] = test system: M. grisea H2O; test: microbe, parasite or virus in culture; format: cell-based, Magnaporthe grisea; conditions: for inhibition of growth at 5 µg/mL / inhibition of growth at 10 µg/mL / inhibition of growth at 25 µg/mL / inhibition of growth at 50 µg/mL: Pyricularia grisea, H2O, 24 h, read-out: Aktivität gegenüber M. grisea H2O
[5] = test system: alle getesteten Pathogene; format: cell-based; conditions: 5-50 µg/mL
[6] = test system: Setaria italica; test: Crop plant growth test, seeds on filter discs, 4 days, visual evaluation; format: in vivo
Outline: (§1)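 Compounds dried from DMSO onto filter discs; about 12 seeds per well with 200 µl sterile tap water, incubated 4 days in a humid chamber under 16 h light/8 h dark. Visual scoring: + means at least 75 % growth inhibition versus control, − means less than 75 %.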

[7] = test system: Lepidium sativum; test: as above; format: in vivo
Outline: as §1

[8] = test system: P. infestans; test: microbe, parasite or virus in culture; format: cell-based, Phytophthora infestans; conditions: for inhibition of growth at 5 µg/mL / inhibition of growth at 10 µg/mL / inhibition of growth at 25 µg/mL / inhibition of growth at 50 µg/mL: Phytophthora infestans, 24 h, read-out: Aktivität gegenüber P. infestans
[9] = test system: Candida albicans; test: Growth test in microtiter plates, HA medium, 24 h, visual evaluation; format: cell-based; set-up: key: +: kein Wachstum im Vergleich zur Wachstumskontrolle; -: Wachstum wie Wachstumskontrolle
[10] = test system: Botrytis cinerea; test: microbe, parasite or virus in culture; format: cell-based; conditions: for inhibition of growth at 5 µg/mL / inhibition of growth at 10 µg/mL / inhibition of growth at 25 µg/mL / inhibition of growth at 50 µg/mL: Botrytis cinerea, 24 h, read-out: Aktivität gegenüber B. cinerea
[11] = test system: Paecilomyces variotii; test: Growth test in microtiter plates, HA medium, 24 h, visual evaluation; format: cell-based; set-up: key: +: kein Wachstum im Vergleich zur Wachstumskontrolle; -: Wachstum wie Wachstumskontrolle

SMILES | inhibition of growth at 5 µg/mL [1] [%] | inhibition of growth at 10 µg/mL [1] [%] | inhibition of growth at 25 µg/mL [1] [%] | inhibition of growth at 50 µg/mL [1] [%] | Aktivität gegenüber M. miehei ([2]; 10µg/mL) | Aktivität gegenüber M. miehei ([2]; 50µg/mL) | Aktivität gegenüber P. notatum ([3]; 10µg/mL) | Aktivität gegenüber P. notatum ([3]; 50µg/mL) | inhibition of growth at 5 µg/mL [4] [%] | Aktivität im Wachstums- und Keimungshemmungstest gegen die getesteten Pathogene [5] | Aktivität gegenüber Nutzpflanzen: S. italica ([6]; 10µg/R) | Aktivität gegenüber Nutzpflanzen: S. italica ([6]; 20µg/R) | Aktivität gegenüber Nutzpflanzen: S. italica ([6]; 50µg/R) | Aktivität gegenüber Nutzpflanzen: L. sativum ([7]; 10µg/R) | Aktivität gegenüber Nutzpflanzen: L. sativum ([7]; 20µg/R) | Aktivität gegenüber Nutzpflanzen: L. sativum ([7]; 50µg/R) | Aktivität gegenüber C. albicans ([9]; 10µg/mL) | Aktivität gegenüber C. albicans ([9]; 50µg/mL) | Aktivität gegenüber P. variotii ([11]; 10µg/mL) | Aktivität gegenüber P. variotii ([11]; 50µg/mL) | also measured
COc1cc(C)cc([Se]c2cc(C)cc(OC)c2O)c1O [Verbindung 20, Bis(2-hydroxy-3-methoxy-5-methylphenyl)selen] | 25 to 50 | > 75 | > 75 | > 75 | - | - | - | - | 25 to 50 | fungizider Effekt | - (weniger als 75 % Wachstumshemmung im Vergleich zur Kontrolle) | - (weniger als 75 % Wachstumshemmung im Vergleich zur Kontrolle) | - (weniger als 75 % Wachstumshemmung im Vergleich zur Kontrolle) | - (weniger als 75 % Wachstumshemmung im Vergleich zur Kontrolle) | - (weniger als 75 % Wachstumshemmung im Vergleich zur Kontrolle) | - (weniger als 75 % Wachstumshemmung im Vergleich zur Kontrolle) | - | - | - | - | inhibition of growth at 10 µg/mL [4]: > 75%; inhibition of growth at 25 µg/mL [4]: > 75%; inhibition of growth at 50 µg/mL [4]: > 75%; inhibition of growth at 5 µg/mL [8]: 0 to 25%; inhibition of growth at 10 µg/mL [8]: 0 to 25%; inhibition of growth at 25 µg/mL [8]: > 75%; inhibition of growth at 50 µg/mL [8]: > 75%; inhibition of growth at 5 µg/mL ([10]; 5µg/mL): 0 to 25%; inhibition of growth at 10 µg/mL ([10]; 10µg/mL): 0 to 25%; inhibition of growth at 25 µg/mL ([10]; 25µg/mL): 0 to 25%; inhibition of growth at 50 µg/mL ([10]; 50µg/mL): 0 to 25%
Oc1c(Cl)cc(F)cc1[Se]c1cc(F)cc(Cl)c1O [Verbindung 24, Bis(3-chlor-5-fluor-2-hydroxyphenyl)selen] | > 75 | > 75 | > 75 | > 75 | + | + | + | + | > 75 | durchgehende Aktivität gegen alle Pathogene | - (weniger als 75 % Wachstumshemmung im Vergleich zur Kontrolle) | + (mind. 75 % Wachstumshemmung im Vergleich zur Kontrolle) | - (weniger als 75 % Wachstumshemmung im Vergleich zur Kontrolle) | - (weniger als 75 % Wachstumshemmung im Vergleich zur Kontrolle) | + (mind. 75 % Wachstumshemmung im Vergleich zur Kontrolle) | - (weniger als 75 % Wachstumshemmung im Vergleich zur Kontrolle) | + | + | + | - | inhibition of growth at 10 µg/mL [4]: > 75%; inhibition of growth at 25 µg/mL [4]: > 75%; inhibition of growth at 50 µg/mL [4]: > 75%; Effekt auf S. italica [6]: deutlichen negativen Effekt; Effekt auf L. sativum [7]: deutlichen negativen Effekt; inhibition of growth at 5 µg/mL [8]: > 75%; inhibition of growth at 10 µg/mL [8]: > 75%; inhibition of growth at 25 µg/mL [8]: > 75%; inhibition of growth at 50 µg/mL [8]: > 75%; mikrobizide Wirksamkeit gegenüber B. cinerea [10]: mikrobizide Wirksamkeit; inhibition of growth at 5 µg/mL ([10]; 5µg/mL): > 75%; inhibition of growth at 10 µg/mL ([10]; 10µg/mL): > 75%; inhibition of growth at 25 µg/mL ([10]; 25µg/mL): > 75%; inhibition of growth at 50 µg/mL ([10]; 50µg/mL): > 75%
Oc1c(F)cc(F)cc1[Se]c1cc(F)cc(F)c1O [Verbindung 25, Bis(3,5-difluoro-2-hydroxyphenyl)selen] |  |  |  |  | + | + | + | + |  | durchgehende Aktivität gegen alle Pathogene | - (weniger als 75 % Wachstumshemmung im Vergleich zur Kontrolle) | + (mind. 75 % Wachstumshemmung im Vergleich zur Kontrolle) | - (weniger als 75 % Wachstumshemmung im Vergleich zur Kontrolle) | - (weniger als 75 % Wachstumshemmung im Vergleich zur Kontrolle) | + (mind. 75 % Wachstumshemmung im Vergleich zur Kontrolle) | - (weniger als 75 % Wachstumshemmung im Vergleich zur Kontrolle) | - | + | + | - | Aktivität gegenüber M. grisea CM ([1]; 5µg/mL): +++ (mehr als 75 % der Sporen nicht gekeimt); Aktivität gegenüber M. grisea CM ([1]; 10µg/mL): +++ (mehr als 75 % der Sporen nicht gekeimt); Aktivität gegenüber M. grisea CM ([1]; 25µg/mL): +++ (mehr als 75 % der Sporen nicht gekeimt); Aktivität gegenüber M. grisea CM ([1]; 50µg/mL): +++ (mehr als 75 % der Sporen nicht gekeimt); Aktivität gegenüber M. grisea H2O ([4]; 5µg/mL): +++ (mehr als 75 % der Sporen nicht gekeimt); Aktivität gegenüber M. grisea H2O ([4]; 10µg/mL): +++ (mehr als 75 % der Sporen nicht gekeimt); Aktivität gegenüber M. grisea H2O ([4]; 25µg/mL): +++ (mehr als 75 % der Sporen nicht gekeimt); Aktivität gegenüber M. grisea H2O ([4]; 50µg/mL): +++ (mehr als 75 % der Sporen nicht gekeimt); Effekt auf S. italica [6]: deutlichen negativen Effekt; Effekt auf L. sativum [7]: deutlichen negativen Effekt; Aktivität gegenüber P. infestans ([8]; 5µg/mL): +++ (mehr als 75 % der Sporen nicht gekeimt); Aktivität gegenüber P. infestans ([8]; 10µg/mL): +++ (mehr als 75 % der Sporen nicht gekeimt); Aktivität gegenüber P. infestans ([8]; 25µg/mL): +++ (mehr als 75 % der Sporen nicht gekeimt); Aktivität gegenüber P. infestans ([8]; 50µg/mL): +++ (mehr als 75 % der Sporen nicht gekeimt); mikrobizide Wirksamkeit gegenüber B. cinerea [10]: mikrobizide Wirksamkeit; Aktivität gegenüber B. cinerea ([10]; 5µg/mL): + (key: +++: mehr als 75 % der Sporen nicht gekeimt; ++: zwischen 50 und 75 % der Sporen nicht gekeimt; +: zwischen 25 und 50 % der Sporen nicht gekeimt; -: zwischen 0 und 25 % der Sporen nicht gekeimt); Aktivität gegenüber B. cinerea ([10]; 10µg/mL): +++ (key: +++: mehr als 75 % der Sporen nicht gekeimt; ++: zwischen 50 und 75 % der Sporen nicht gekeimt; +: zwischen 25 und 50 % der Sporen nicht gekeimt; -: zwischen 0 und 25 % der Sporen nicht gekeimt); Aktivität gegenüber B. cinerea ([10]; 25µg/mL): +++ (key: +++: mehr als 75 % der Sporen nicht gekeimt; ++: zwischen 50 und 75 % der Sporen nicht gekeimt; +: zwischen 25 und 50 % der Sporen nicht gekeimt; -: zwischen 0 und 25 % der Sporen nicht gekeimt); Aktivität gegenüber B. cinerea ([10]; 50µg/mL): +++ (key: +++: mehr als 75 % der Sporen nicht gekeimt; ++: zwischen 50 und 75 % der Sporen nicht gekeimt; +: zwischen 25 und 50 % der Sporen nicht gekeimt; -: zwischen 0 und 25 % der Sporen nicht gekeimt)

Reference: patent publication EP3262942A1, “SELENODIARYLS FOR USE AS MICROBICIDE OR AS MEDICINE” (Evonik Degussa GmbH, priority 2016, dated 2018)
